Measured values: ChEMBL document CHEMBL5038636, “Dihydrolucilactaene, a Potent Antimalarial Compound from Fusarium sp. RK97-94” (J Nat Prod, 2022)

What was measured:
HeLa = assay: Cytotoxicity against human HeLa cells assessed as growth inhibition; format: functional, cell-based
Aspergillus fumigatus = assay: Antifungal activity against Aspergillus fumigatus Af293 assessed as growth inhibition; format: functional, organism-based
Plasmodium falciparum [1] = assay: Antimalarial activity against chloroquine-resistant Plasmodium falcipuram K1 assessed as growth inhibition; format: functional, organism-based
T98G = assay: Cytotoxicity against human T98G cells assessed as growth inhibition; format: functional, cell-based
Candida albicans = assay: Antifungal activity against Candida albicans JCM1542 assessed as growth inhibition; format: functional, organism-based
Pyricularia oryzae = assay: Antifungal activity against Pyricularia oryzae kita-1 assessed as growth inhibition; format: functional, organism-based
Staphylococcus aureus = assay: Antibacterial activity against Staphylococcus aureus 209 assessed as growth inhibition; format: functional, organism-based
MKN-74 = assay: Cytotoxicity against human MKN74 cells assessed as growth inhibition; format: functional, cell-based
Plasmodium falciparum [2] = assay: Antimalarial activity against wild-type Plasmodium falcipuram 3D7 assessed as growth inhibition; format: functional, organism-based
Escherichia coli = assay: Antibacterial activity against Escherichia coli HO141 assessed as growth inhibition; format: functional, organism-based
HL-60 = assay: Cytotoxicity against human HL-60 cells assessed as growth inhibition; format: functional, cell-based

| Compound | IC50 (HeLa) | IC50 (Aspergillus fumigatus) | IC50 (Plasmodium falciparum [1]) | IC50 (T98G) | IC50 (Candida albicans) | IC50 (Pyricularia oryzae) | IC50 (Staphylococcus aureus) | IC50 (MKN-74) | IC50 (Plasmodium falciparum [2]) | IC50 (Escherichia coli) | IC50 (HL-60) |
| --- | --- | --- | --- | --- | --- | --- | --- | --- | --- | --- | --- |
| C\C=C(/C=C(C)/C=C/C=C/C=C(\C)C(=O)C1C[C@@](O)(CCO)NC1=O)C(=O)OC (some centres not stated) | 21.5 µM | > 70 µM | 0.0015 µM | > 70 µM | > 70 µM | 6.7 µM | > 70 µM | > 70 µM | 0.0015 µM | > 70 µM | 37.7 µM |
| C\C=C(/C=C(C)/C=C/C=C/C=C(\C)C(=O)[C@H]1C(=O)N[C@]2(O)CCO[C@H]12)C(=O)OC | 24.9 µM | > 70 µM |  |  | > 70 µM | > 70 µM | > 70 µM |  | 0.15 µM | > 70 µM | 17.4 µM |
| C[C@@H]1CC[C@H]2[C@@H](C)C(=O)O[C@@H]3O[C@@]4(C)CC[C@@H]1[C@]32OO4 [ARTEMISININ] |  |  |  |  |  |  |  |  | 0.019 µM |  |  |
| C\C=C(/C=C(C)/C=C/C=C/C=C(\C)C(=O)[C@]12O[C@H]1[C@@](O)(CCO)NC2=O)C(=O)OC | 14.1 µM | > 70 µM |  |  | > 70 µM | > 70 µM | > 70 µM |  | 1.8 µM | > 70 µM | 15.8 µM |
| O=C(N[C@H](CO)[C@H](O)c1ccc([N+](=O)[O-])cc1)C(Cl)Cl [CHLORAMPHENICOL] |  |  |  |  |  |  | 5.4 µM |  |  | 4.6 µM |  |
| CC(=O)O[C@H]1C(=O)[C@@]2(C)[C@H]([C@H](OC(=O)c3ccccc3)[C@]3(O)C[C@H](OC(=O)[C@H](O)[C@@H](NC(=O)c4ccccc4)c4ccccc4)C(C)=C1C3(C)C)[C@]1(OC(C)=O)CO[C@@H]1C[C@@H]2O [PACLITAXEL] | 0.0043 µM |  |  | 8.7 µM |  |  |  |  |  |  | 0.0022 µM |
| C\C=C(/C=C(C)/C=C/C=C/C=C(\C)C(=O)[C@@]1(O)C(=O)N[C@]2(O)CCO[C@H]12)C(=O)OC | > 70 µM |  |  |  |  |  |  |  | 0.67 µM |  | > 70 µM |
| C\C=C(/C=C(C)/C=C/C=C/C=C(\C)C(=O)[C@H]1C(=O)N[C@]2(O)CCO[C@H]12)C(=O)O | > 70 µM | > 70 µM |  |  | > 70 µM | > 70 µM | > 70 µM |  | 43.9 µM | > 70 µM | > 70 µM |
| C\C=C(/C=C(C)/C=C/C=C/C=C(\C)C(O)[C@]12O[C@H]1[C@@](O)(CCO)NC2=O)C(=O)OC (some centres not stated) | > 70 µM | > 70 µM |  | > 70 µM | > 70 µM | > 70 µM | > 70 µM | > 70 µM | 62.1 µM | > 70 µM | > 70 µM |
| C[C@@H]1[C@H](O)[C@@H](C)/C=C/C=C/C=C/C=C/C=C/C=C/C=C/[C@H](O[C@@H]2O[C@H](C)[C@@H](O)[C@H](N)[C@@H]2O)C[C@@H]2O[C@](O)(C[C@@H](O)C[C@@H](O)[C@H](O)CC[C@@H](O)C[C@@H](O)CC(=O)O[C@H]1C)C[C@H](O)[C@H]2C(=O)O [AMPHOTERICIN B] |  | 0.21 µM |  |  | 0.03 µM | 0.16 µM |  |  |  |  |  |
